In one test the test system is Escherichia coli. In words: Antibacterial activity against Escherichia coli ATCC 9637. It is filed as functional.
For another test, the system named is Candida albicans. In words: […] activity against Candida albicans ATCC 10231. It is filed as functional.
Test [1] has as its system Salmonella enterica subsp. enterica serovar Gallinarum. In words: Antibacterial activity against Salmonella gallinarum ATCC 9184. Type of test: functional.
A further test has as its system Klebsiella pneumoniae. Description: Antibacterial activity against Klebsiella pneumoniae ATCC 10031. Type of test: functional.
A further test has as its system Pseudomonas aeruginosa. Description: Antibacterial activity against Pseudomonas aeruginosa ATCC 27853. It is filed as functional, organism-based.
A further test has as its system Staphylococcus aureus. Description: Antibacterial activity against Staphylococcus aureus ATCC 13709. It is filed as functional.
Test [2] relates to Mycolicibacterium smegmatis. In words: Antibacterial activity against Mycobacterium smegmatis ATCC 607. It is filed as functional.

Converted amounts (≈) assume the structure as drawn. The source made the active and inactive calls.

Take `COc1ccc([C@H]2COc3c(ccc(O)c3CC=C(C)C)C2)c(O)c1`: the MIC entry (in the test with Escherichia coli; in test [1]; with Klebsiella pneumoniae; with Pseudomonas aeruginosa; in test [2]) was “inactive” in each case. The MIC (as a rule, the smallest concentration in the dilution series that meets the test's criterion for growth inhibition) against Candida albicans was 12.5 µg/mL (≈ 36.7 µM); with Staphylococcus aureus, 6.25 µg/mL (≈ 18.4 µM).

Regarding `O=C1c2c(O)cc(O)cc2OC(c2ccc(O)cc2)C1C1C(=O)c2c(O)cc(O)cc2OC1c1ccc(O)cc1` (stereo unspecified) [CHAMAEJASMIN], the MIC entry (with Escherichia coli; in the test with Candida albicans; in test [1]; in the test with Klebsiella pneumoniae; with Pseudomonas aeruginosa; in test [2]) was “inactive” throughout. Moreover, the MIC against Staphylococcus aureus was found to be 12.5 µg/mL (≈ 23 µM).

`CN[C@@H]1[C@H](O[C@H]2[C@H](O[C@H]3[C@H](O)[C@@H](O)[C@H](N=C(N)N)[C@@H](O)[C@@H]3N=C(N)N)O[C@@H](C)[C@]2(O)C=O)O[C@@H](CO)[C@H](O)[C@H]1O.CN[C@@H]1[C@H](O[C@H]2[C@H](O[C@H]3[C@H](O)[C@@H](O)[C@H](N=C(N)N)[C@@H](O)[C@@H]3N=C(N)N)O[C@@H](C)[C@]2(O)C=O)O[C@@H](CO)[C@H](O)[C@H]1O.O=S(=O)(O)O.O=S(=O)(O)O.O=S(=O)(O)O` [STREPTOMYCIN SULFATE]: the MIC was 5 µg/mL in the test with Escherichia coli; 50 µg/mL in test [1]; 2.5 µg/mL against Klebsiella pneumoniae; 5 µg/mL against Staphylococcus aureus; 1.25 µg/mL in test [2]. Also, the MIC result in the test with Candida albicans and with Pseudomonas aeruginosa was “inactive” each time.

For the origin of these results see ChEMBL document CHEMBL1147274, “Isoflavans and a Stilbene from Wood of the Decay-Resistant Tropical Tree Diphysa robinioides” (1986).
